Experiments:
Format in all cases: in vivo
[1] = tested on: Soybean variety "Cordoba"; assay: Plant growth test, greenhouse, seed treatment, soybean variety Cordoba; conditions: for Green surface, % of untreated: 15 days; for Green surface: 15 days at 20° C., 80% relative humidity
Procedure: (§1) The test is performed in the greenhouse. 7 soybean seeds per treatment of 2 varieties (Cordoba and Isidor) were sown in 5 liter pots containing 13 cm of a mix of steamed field soil and sand (1:1), 2 replicates were made. The tested compound as well as the reference active ingredient were both solved in a standard solvent used for soybean seed application and known to be safe. Seed treatment was performed with the aid of laboratory equipment. For untreated, 4 replicates were made and seeds were treated with the pure solvent. 2 fungicide concentrations were tested: 5 g a.i./100 kg and 10 g a.i./100 kg. Seeds were then covered by 5 cm of the same mix of steamed field soil and sand (1:1). Pots were incubated in the greenhouse 15 days at 20° C. and 80% relative humidity. Assessment consisted of calculation of green surface of soybean (pixel) using a digital imaging software to manage data analysis.

Soybean variety "Isidor" = assay: Plant growth test, greenhouse, seed treatment, soybean variety Isidor; conditions: for Green surface, % of untreated: 15 days; for Green surface: 15 days at 20° C., 80% relative humidity
Procedure: as §1

soybean seeds = assay: Emergence of soybean plants after seed treatment; conditions: soybean seeds treated

Row | Structure (SMILES) | Green surface, % of untreated ([1]; seed treatment 5 g a.i./100kg) | Green surface ([1]; seed treatment 5 g a.i./100kg) [pixel] | Green surface, % of untreated ([1]; seed treatment 10 g a.i./100kg) | Green surface ([1]; seed treatment 10 g a.i./100kg) [pixel] | Green surface, % of untreated (Soybean variety "Isidor"; seed treatment 5 g a.i./100kg) | Green surface (Soybean variety "Isidor"; seed treatment 5 g a.i./100kg) [pixel] | Green surface, % of untreated (Soybean variety "Isidor"; seed treatment 10 g a.i./100kg) | Green surface (Soybean variety "Isidor"; seed treatment 10 g a.i./100kg) [pixel] | Emergence of the soybean plants in comparison to untreated plants (soybean seeds)
1 | O=C(Nc1ccccc1-c1ccc(Cl)cc1)c1cccnc1Cl [Boscalid, reference compound] | 109 % of untreated | 74661 | 113 % of untreated | 77243 | 86 % of untreated | 71972 | 86 % of untreated | 72634 | 
2 | Cc1nn(C)c(F)c1C(=O)Nc1ccccc1C(C)CC(C)C (centres unmarked) [Penflufen, N-{2-(1,3-dimethylbutyl)anilino}-1,3-dimethyl-5-fluor-4-pyrazol] | 160 % of untreated | 109373 | 158 % of untreated | 108284 | 125 % of untreated | 105395 | 133 % of untreated | 111543 | earlier emergence
